The values below come from ChEMBL document CHEMBL3727361, “Nitrogen bicyclic compounds as inhibitors for Scyl1 and Grk5” (2014).

What is called inhibition is how much of the control response was suppressed.

Series [1] addresses T1, N-terminal kinase-like protein (Mus musculus) (UniProt Q9EQC5).
T1 sequence (whole entry): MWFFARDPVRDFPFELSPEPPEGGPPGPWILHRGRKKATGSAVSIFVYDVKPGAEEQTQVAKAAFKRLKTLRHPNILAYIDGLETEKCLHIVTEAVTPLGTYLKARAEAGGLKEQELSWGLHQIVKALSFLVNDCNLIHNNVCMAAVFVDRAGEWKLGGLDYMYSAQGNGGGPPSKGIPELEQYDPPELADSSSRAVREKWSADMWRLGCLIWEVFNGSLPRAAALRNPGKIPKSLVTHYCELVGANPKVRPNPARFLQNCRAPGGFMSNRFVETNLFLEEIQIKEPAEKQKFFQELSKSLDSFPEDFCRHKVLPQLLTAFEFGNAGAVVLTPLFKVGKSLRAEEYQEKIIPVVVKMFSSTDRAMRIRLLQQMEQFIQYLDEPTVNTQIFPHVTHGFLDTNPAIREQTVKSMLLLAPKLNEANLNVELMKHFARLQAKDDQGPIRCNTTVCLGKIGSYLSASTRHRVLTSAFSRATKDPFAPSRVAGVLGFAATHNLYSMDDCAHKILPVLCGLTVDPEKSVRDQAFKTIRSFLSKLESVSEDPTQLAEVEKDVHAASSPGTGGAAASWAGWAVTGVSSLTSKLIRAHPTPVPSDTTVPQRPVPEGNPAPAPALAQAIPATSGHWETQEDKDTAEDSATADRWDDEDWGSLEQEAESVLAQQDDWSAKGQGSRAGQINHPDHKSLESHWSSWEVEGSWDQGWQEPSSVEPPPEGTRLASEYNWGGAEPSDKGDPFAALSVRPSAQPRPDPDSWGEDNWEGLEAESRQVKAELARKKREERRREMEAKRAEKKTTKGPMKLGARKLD
Put plainly: Inhibition of GRK5 in mouse C2C12 cells assessed as increase in 2-NBDG uptake at 5 uM after 1 hr relative to DMSO. In kind it is cell-based.

In series [2] the test system is Beta-TC6. The series is described as follows: Increase in insulin release in mouse BetaTC6 cells at 5 uM incubated for 2 hrs by ELISA. Format: functional. (In an ELISA, binding on a coated surface is turned into a signal by an enzyme label.)
The test system of series [3] is Beta-TC6. Put plainly: Effect on insulin release in mouse BetaTC6 cells incubated for 2 hrs by ELISA. In kind it is functional, cell-based.
Series [4] is described as follows: Cytotoxic activity against mouse BetaTC6 cells assessed as inhibition of cell proliferation at 10 uM incubated for 72 hrs by MTT assay. Format: cell-based. The conditions noted are these: beta-tc6, 72 h. For orientation: Tetrazolium dyes change colour on reduction, which living cells bring about.
Series [5] has as its system Beta-TC6. Put plainly: Increase in insulin release in mouse BetaTC6 cells assessed as relative insulin release activity at 10 uM incubated for 2 to 4 hrs by FRET based HTRF assay relative to sunitinib. Format: functional.
Series [6] relates to C2C12. Put plainly: Cytotoxic activity against mouse C2C12 cells assessed as inhibition of cell proliferation of at 2 to 10 uM incubated for 72 hrs by MTT assay. The conditions noted are these: c2c12, 72 h. In kind it is cell-based.
The nature of series [7]: Cytotoxic activity against mouse BetaTC6 cells assessed as inhibition of cell proliferation at 2 to 10 uM incubated for 72 hrs by MTT assay. Format: cell-based. The conditions noted are these: beta-tc6, 72 h.
Series [8] has as its target T1, N-terminal kinase-like protein (Mus musculus). The series is described as follows: Inhibition of Scyl1 in mouse BetaTC6 cells assessed as increase in insulin release at 2 to 10 uM incubated for 2 hrs in presence of high glucose media by ELISA. The conditions noted are these: Beta-TC6. In kind it is cell-based.
A short description of series [9]: Effect on insulin release in mouse BetaTC6 cells assessed as ratio of insulin release incubated for 2 hrs in presence of low glucose media by ELISA relative to DMSO. The following applies: beta-tc6, 2 h. In kind it is cell-based.
The subject of series [10] is C2C12. Put plainly: Cytotoxic activity against mouse C2C12 cells assessed as inhibition of cell proliferation of at 2 uM incubated for 72 hrs by MTT assay. In kind it is cell-based. The following applies: c2c12, 72 h.
Series [11] addresses T1, N-terminal kinase-like protein (Mus musculus). The series is described as follows: Inhibition of Scyl1 in mouse BetaTC6 cells assessed as reduction in increase in insulin release at 5 uM incubated for 2 hrs by ELISA. In kind it is cell-based. The conditions noted are these: Beta-TC6.
The target in series [12] is RAC-alpha serine/threonine-protein kinase (Mus musculus) (UniProt P31750). Put plainly: Inhibition of Akt1 in mouse BetaTC6 cells assessed as increase in insulin release at 10 uM incubated for 2 hrs by ELISA. The following applies: Beta-TC6. Format: cell-based. Details: scale not given: the % may be the effect or the level left.

Molecules are shown by their SMILES. Activity calls are given as the source filed them. The calls are words filed in the database; no cut-off is given here.

Sequence of RAC-alpha serine/threonine-protein kinase (Mus musculus) (P31750 whole entry): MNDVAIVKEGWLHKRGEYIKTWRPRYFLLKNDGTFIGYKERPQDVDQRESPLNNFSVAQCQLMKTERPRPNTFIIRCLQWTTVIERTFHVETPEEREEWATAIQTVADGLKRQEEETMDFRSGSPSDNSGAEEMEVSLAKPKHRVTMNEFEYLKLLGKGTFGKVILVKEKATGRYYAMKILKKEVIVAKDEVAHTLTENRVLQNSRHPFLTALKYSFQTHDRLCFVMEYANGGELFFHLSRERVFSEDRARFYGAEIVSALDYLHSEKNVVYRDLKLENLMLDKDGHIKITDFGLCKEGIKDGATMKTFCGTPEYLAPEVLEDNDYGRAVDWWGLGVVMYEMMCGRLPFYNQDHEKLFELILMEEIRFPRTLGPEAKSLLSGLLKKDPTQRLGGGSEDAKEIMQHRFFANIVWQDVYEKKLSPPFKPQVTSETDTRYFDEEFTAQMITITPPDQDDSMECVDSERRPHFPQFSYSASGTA

For the compound `COc1ncc(-c2cc(NC(C)=O)c3ncc(-c4cccc(C(=O)N(C)C)c4)n3c2)c(OC)n1`, the fold change (FC) in series [1] came out at 1.73. Besides, the Activity in the series with Beta-TC6 [2] is listed as -16.75%.
For `CCCCNC(=O)NS(=O)(=O)c1ccc(C)cc1`, the result with Beta-TC6 [3] was inactive.
Turning to `COc1ccc(Cl)cc1C(=O)NCCc1ccc(S(=O)(=O)NC(=O)NC2CCCCC2)cc1`, the outcome in the series with Beta-TC6 [3] was inactive.
For `CCN(CC)CCNC(=O)c1c(C)[nH]c(/C=C2\C(=O)Nc3ccc(F)cc32)c1C` [SUNITINIB], the Activity entry in series [4] is “Toxic”.
Turning to `CC(=O)Nc1cccc(-c2ccc3ncc(-c4cccc(NC(C)=O)c4)n3n2)c1`, the Activity in the series on Beta-TC6 [5] was 20%; with C2C12 [6], “Toxic”; in series [7], “Non-toxic”; in series [9] it was “Non-toxic”; in the series with C2C12 [10] it was “Non-toxic”. Further, in series [8], the inhibition entry was “Dose-dependent effect”.
As for `COc1cc(-c2ccc3ncc(-c4cccnc4)n3n2)cc(OC)c1OC`, the Activity with Beta-TC6 [5] was 20%; in the series with C2C12 [6], “Toxic”; in series [7], “Non-toxic”; in series [9], “Non-toxic”; with C2C12 [10], “Non-toxic”. Moreover, the results for the inhibition entry in [8] and in series [11] were “Dose-dependent effect” and 100%, respectively.
Regarding `COc1cc(-c2cnc3ccc(-c4cc(OC)c(OC)c(OC)c4)nn23)ccc1O`, the figures for the Activity (in the series on Beta-TC6 [5]; in the series with C2C12 [6]; in [9]) were 20%, “Toxic” and “Non-toxic”, respectively. Also, the inhibition entry in [8] is “Dose-dependent effect”.
As to `CN(C)CCNC(=O)c1cccc(-c2cnc3ccc(-c4cccc(NS(C)(=O)=O)c4)nn23)c1`, the Activity in the series with Beta-TC6 [5] is 20%; with C2C12 [6], “Toxic”; in series [9], “Non-toxic”; in series [4], “Toxic”. Also, the inhibition entry in [8] is “Dose-dependent effect”.
For `CCCCCCCCCCCCCCCCCCOC[C@H](COP(=O)(O)O[C@H]1[C@H](O)[C@@H](O)[C@H](O)C[C@H]1OC)OC`, the Activity in [12] worked out at 0.75%.
Take `COc1ccc(-c2ccc3ncc(-c4ccncc4)n3n2)cc1OC`: the Activity in the series with Beta-TC6 [5] is 20%; in the series on C2C12 [6], “Toxic”; in [9], “Non-toxic”; in [4] it was “Toxic”; in the series with C2C12 [10], “Non-toxic”. For the same compound, the inhibition result in series [8] was “Dose-dependent effect”.
